Laboratory results as given in patent US9623121B2, “Optical-imaging probe for detecting sentinel lymph nodes which contains a composite of poly-gamma-glutamic acid and an optical-imaging dye” (BIOLEADERS CORPORATION, priority 2010, dated 2017).

How the values were obtained:
[1] = In vivo near-infrared imaging of the sentinel lymph node after subcutaneous footpad injection; parameters: species or system BALB/c nude mice; conditions: 0.01% solution, 50 μl s.c. into left forefoot, 30 minutes after injection
Method: In animal tests, 6-week-old female BALB/c nude mice (SLC Inc., Japan) with no pathogens were used. All the tests were performed under the approval of the Laboratory Animal Center, Chungnam National University.
For data acquisition and analysis, images (see FIG. 3) were obtained using a home-made NIR optical imaging system (see FIG. 2) manufactured by the present inventors. Herein, the near-infrared optical imaging system comprises a light source consisting of a 500 mW fiber-type laser, an emission filter, a lens system equipped with a microzoom, and a near-infrared detector (NIR CCD detector) (see FIG. 2). In the near infrared imaging system, the intensity of fluorescence appears as a pseudo color, and more red fluorescence indicates stronger intensity.
Before imaging, mice were anesthetized by intraperitoneally injecting a 2.5% avertin (2,2,2-tribromoethanol-tert-amyl alcohol, Sigma) solution at a dose of 0.01 Ml/g weight. 50 μl of each of an ICG solution (0.01%), ICG/γ-PGA (50 kDa) complex solutions (0.01%, 0.1% and 1%) and ICG/γ-PGA (7000 kDa) complex solutions (0.01%, 0.1% and 1%) was injected into the left forefoot of each nude mouse (footpad, subcutaneous injection), and after 5 min, 20 min and 30 min, the fluorescence of the sentinel lymph node was measured. […]

[2] = Light stability: near-infrared fluorescence intensity of solutions kept at room temperature for 3 days; assay type: physicochemical; conditions: 50 μl of solution (0.01% ICG) in tube, after 3 days
Method: 50 μl of the prepared ICG/γ-PGA complex solution was dispensed into a 1.5 Ml tube, and then the near-infrared fluorescence spectrum thereof was measured using a fluorescence spectrophotometer (FluoroMate FS-2) (see FIG. 1).

Question: What does the source list for `CC1(C)C(/C=C/C=C/C=C/C=C2\N(CCCCS(=O)(=O)O)c3ccc4ccccc4c3C2(C)C)=[N+](CCCCS(=O)(=O)[O-])c2ccc3ccccc3c21` [ICG, Indocyanine green]?
Answer: intensity of fluorescence emitted from the sentinel lymph node [1]: very weak; retention in the sentinel lymph node / migration to other lymph nodes [1]: did not remain in the sentinel lymph node and migrated to other lymph node; fluorescence intensity (light stability) [2]: rapidly decreased
